{"source": "patent US20100069316A1", "about": "“TREATMENT FOR MULTIPLE MYELOMA” (Ares Trading S.A., priority 2006, published 2010)", "assay_type_in_all_cases": "cell-based, human", "settings_in_all_cases": "day 3 of culture", "key": {"XG-3 myeloma cell line [1]": {"system": "XG-3 myeloma cell line", "experiment": "Detection of apoptosis (FITC-annexin V), XG-3", "excerpt": "Apoptotic cells were detected using fluorescein isothiocyanate-labelled annexin V (FITC-annexin-V, Boehringer Mannheim). Annexin V has a high affinity for phosphatidylserine present on the outer cytoplasmic membrane of apoptotic cells. Cells were washed, labeled with FITC-annexin-V according to the manufacturer's recommendations and analyzed with a FACScan flow cytometer using Cell Quest software (Becton Dickinson, Moutain View, Calif., USA).\n(§1) Two myeloma cell lines (XG-3 and XG-12) that are sensitive to compound A (1-(4-{4-[4-(4-chlorophenyl)-pyrimidin-2-ylamino]-benzoyl}-piperazin-1-yl)-ethanone) were selected for the study. To assess the effect of compound A on myeloma cell survival, the percentage apoptotic cells was determined using binding of annexin V to apoptotic cells. The effect of compound A on the cell cycle was assessed by evaluating the percentage of cells in the S phase of the cell cycle by incorporation of BrdU-FITC. Apoptosis, cell cycle and cell numeration were evaluated daily on a four day culture period on the cell lines using the IC10, IC50 and I90 respective doses of compound A."}, "XG-12 myeloma cell line": {"system": "XG-12 myeloma cell line", "experiment": "Cell cycle measurement (BrdU/PI, S phase), XG-12", "procedure": "The cell cycle distribution of the cell lines was assessed by flow cytometry analysis by propidium iodide (PI) and bromodeoxyuridine (BrdU) double-staining. Thirty minutes before stopping the culture, BrdU (10 μM) were added to the cultures and then the cells were collected by centrifugation, washed twice in phosphate buffer saline (PBS) and fixed in 70% ethanol for 20 minutes at room temperature. After two washes with PBS, cells were resuspended in 50 μL of 3N HCl, 0.5% Tween 20 and incubated 20 minutes at 20° C. to denature DNA. […] The fluorescence of FL1-H (BrdU) and FL2-A (PI) were analyzed on a FACScan flow cytometer using Cell Quest software (Becton Dickinson).\nas §1"}, "XG-3 myeloma cell line [2]": {"system": "XG-3 myeloma cell line", "experiment": "Cell numeration, XG-3", "procedure": "as §1"}, "[3]": {"settings": "XG-3, compound A at IC10 concentration"}, "[4]": {"settings": "XG-3, compound A at IC50 concentration"}, "[5]": {"settings": "XG-3, compound A at IC90 concentration"}}}
{"smiles": "CC(=O)N1CCN(C(=O)c2ccc(Nc3nccc(-c4ccc(Cl)cc4)n3)cc2)CC1", "note": "[Compound A, 1-(4-{4-[4-(4-Chloro-phenyl)-pyrimidin-2-ylamino]-benzoyl}-piperazin-1-yl)-ethanone]", "values": [{"measurement": "Annexin V (%) percentage of apoptotic cells", "setting": "XG-3 myeloma cell line [1]; [3]", "result": 29.2, "unit": "%"}, {"measurement": "Annexin V (%) percentage of apoptotic cells", "setting": "XG-3 myeloma cell line [1]; [4]", "result": 30.7, "unit": "%"}, {"measurement": "Annexin V (%) percentage of apoptotic cells", "setting": "XG-3 myeloma cell line [1]; [5]", "result": 48.2, "unit": "%"}, {"measurement": "S phase (%) percentage of cells in the S phase", "setting": "XG-12 myeloma cell line; XG-12, compound A at IC50 concentration", "result": 37.3, "unit": "%"}, {"measurement": "S phase (%) percentage of cells in the S phase", "setting": "XG-12 myeloma cell line; XG-12, compound A at IC90 concentration", "result": 6.8, "unit": "%"}, {"measurement": "Cells (×10^6/ml) cell counts", "setting": "XG-3 myeloma cell line [2]; [3]", "result": "0.68 ×10^6/ml"}, {"measurement": "Cells (×10^6/ml) cell counts", "setting": "XG-3 myeloma cell line [2]; [4]", "result": "0.47 ×10^6/ml"}, {"measurement": "Cells (×10^6/ml) cell counts", "setting": "XG-3 myeloma cell line [2]; [5]", "result": "0.29 ×10^6/ml"}]}
